# Experimental data reported in patent US20150297600A1, “Method Of Achieving Increased Systemic Availability of Methotrexate” (Antares Pharma, Inc., priority 2014, published 2015).
# Entries after “also recorded” stand apart in the source; their conditions may differ.
# Legend:
# [1] = Multicenter three-way crossover study: oral vs subcutaneous (abdomen, thigh) methotrexate, blood drug levels for 24 hours and adverse events; assay type: in vivo, patients with adult RA
# Description: A multicenter, three-way crossover study was conducted, wherein patients greater than or equal to 18 years old with adult RA undergoing treatment with MTX for three months or more were assigned to receive one of four dose levels of OTREXUP™ (subcutaneous methotrexate), 10 mg, 15 mg, 20 mg, and 25 mg weekly in a random sequence of three treatments: oral, subcutaneous into the abdomen and subcutaneous into the thigh. For 24 hours after the administration of each treatment, blood samples were collected to measure drug levels and injection sites were assessed.
# [2] = Text: An algorithm was developed to correlate a known oral dose of methotrexate to a jet injector dose. Table 1 illustrates the calculated correlation between oral doses and needle-assisted jet injector doses of methotrexate. The second column illustrates the precise subcutaneous dose calculated based on the algorithm, described in detail below. The third column represents the administrable dose, based on commercially available doses, closest in value to the precise calculated dose.
# Based on the data set forth in table 1, a line equation of y=mx+b was developed to correlate an oral dose of methotrexate to an equivalent dose for use with a jet injector. In the present equation, illustrated by the graph shown in FIG. 1, the slope, m, was determined to be 0.6101 and a y-intercept, b, to be 2.9274. The correlation coefficient of the line, R^2, is 0.9594.
structure (smiles),measurement,setting,value
CN(Cc1cnc2nc(N)nc(N)c2n1)c1ccc(C(=O)N[C@@H](CCC(=O)O)C(=O)O)cc1 [methotrexate],"plasma levels of oral dosed methotrexate, 20 mg or 25 mg doses versus 15 mg doses",[1]; oral,no greater
same,systemic availability of methotrexate following oral dosing,"[1]; oral, 10, 15, 20, 25 mg weekly, RA patients",do not provide increased systemic availability; also recorded: plateaus at 15 mg and greater
same,association of higher systemic methotrexate exposure with adverse events,[1]; short term study,not associated with increases in adverse events
same,"slope, m, of line equation correlating oral dose to equivalent jet injector dose",[2],0.6101
same,"y-intercept, b, of line equation correlating oral dose to equivalent jet injector dose",[2],2.9274
